pKi: −log10 of the molar value.
Molecular target: T1, D1 dopamine receptor (Macaca fascicularis, UniProt Q5I6B7)
T1 sequence (Q5I6B7 whole entry): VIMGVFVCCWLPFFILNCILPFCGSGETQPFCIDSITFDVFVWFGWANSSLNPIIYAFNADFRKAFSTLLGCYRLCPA

pKi	Compound
6.97	Oc1cc2c(cc1O)[C@@H](c1ccccc1)CNCC2
8.89	CN1CCc2cc(Cl)c(O)cc2[C@@H](c2ccccc2)C1 [SCH 23390,R(+)]

Compound	pKi
Oc1cc2c(cc1O)[C@@H]1c3ccccc3CN[C@@H]1CC2 [(+/-)-trans-10,11-dihydroxy-5,6,6a,7,8,12b-hexahydrobenzo[a]phenanthridine]	7.69

From BindingDB's records for doi:10.1016/0014-2999(93)90076-T (University of North Carolina, 1993)
